For test [1], the system named is DU145 human prostate cancer cells (pMet, pAkt, pErk). Description: Western blot of HGF-induced signaling in prostate cancer cells. The class given is cell-based. Particulars: 30 min pretreatment, 30 min HGF. The method, then:
FIG. 4. A) Effect of HVS treatment on HGF-induced c-Met activation in human breast cancer cells using Western Blot analysis. Treatment with HVS caused a significant, dose-responsive inhibition of HGF-induced c-Met phosphorylation in MDA-MB-231, MCF-7, and BT-474 mammary tumor cells with no effect on total c-Met levels after treatment for 72 h, as compared to their respective vehicle-treated control groups. The visualization of β-tubulin was used as a loading control. (B) Effect of HVS on HGF-induced c-Met activation and its downstream mitogenic signaling in DU145 human prostate cancer cells, as compared to vehicle-treated control group, using Western Blot analysis. Cells were pre-treated for 30 minutes with either HVS at 0.1, 0.3, 1, and 5 μM or (−)-oleocanthal at 5, 10, and 20 μM doses in serum-free 0.4-media. 33 ng/mL HGF was then added for 30 minutes. Whole cell lysates were collected and assayed by Western Blot. The visualization of α-tubulin was used as a loading control. Representative Western Blots from each experiment are shown, N=3.
DU145 prostate tumor cells were pretreated for 30 minutes with the indicated compounds. Following pretreatment, cells were pulsed for thirty minutes with HGF, cell lysates were prepared and western blot analysis was performed to identify pMet, pAkt, pErk and tubulin.

In the next test the test system is DU145 spheroids. Nature of the test: 3D spheroid growth, IncuCyte. It is filed as cell-based, human. Particulars: 10 micromolar, 72 hours. The method, then: FIG. 9B: DU145 cells were grown in 10% FBS DMEM. Cells were collected after trypsinization and resuspended in phenol-red free DMEM with 10% FBS. Cells were labeled with Cell-Tracker Red (Life Technologies) for 5 minutes. After labeling cells were washed with PBS and transfer into 96-well Corning 7007 ULA round bottom plates at 1,000 cells/well in 100 μl phenol-red free media with 10% FBS and 5% Matrigel. […] Spheroids were grown at 37° C. and 5% CO2 in IncuCyte ZOOM (Essen Bioscience). Images were acquired every 4 h for a period of 72 h post-treatment and software analysis was design to identify the red object in the well. The data were expressed as fold increase in spheroids size at the end of the treatment using the “average red object area in the well” as determined by the IncuCyte software analysis. FIG. 9C: Visually representative spheroids that are quantitated in FIG. 9B.
To determine the effectiveness of these compounds under 3D growth conditions which more accurately predict effectiveness of new drugs in humans, DU145 spheroids were formed and allowed to grow for 72 hours. Images were recorded every 4 hours using the Incucyte platform. […] Compounds 9 and 10, at 10 micromolar reduced spheroid growth by about 50 percent (not shown).

The test system of the next test is MDA-MB231 spheroids. Nature of the test: 3D spheroid growth, IncuCyte. The class given is cell-based, human. The settings on record: 10 micromolar, results not shown. Here is the method: FIG. 9. (A). MDA-MB231 cells were grown in 10% FBS DMEM. Cells were collected after trypsinization and resuspended in phenol-red free DMEM with 10% FBS. Cells were labeled with CellTracker Red (Life Technologies) for 5 minutes. After labeling cells were washed with PBS and transfer into 96-well Corning 7007 ULA round bottom plates at 1,000 cells/well in 100 μl phenol-red free media with 10% FBS and 5% Matrigel. […] Spheroids were grown at 37° C. and 5% CO2 in IncuCyte ZOOM (Essen Bioscience). Images were acquired every 4 h for a period of 72 h post-treatment. The data were expressed as fold increase in spheroids size at the end of the treatment using the “average red object area in the well” as determined by the IncuCyte software analysis.
MDA-MB231 spheroids were all allowed to form and treated with compounds for up to 72 hours. Images were captured using the Incucyte platform.

Structures are written as SMILES.

Consider `COc1cc(CCOC(=O)/C=C/c2cc(OC)c(O)c(OC)c2)ccc1N` [Compound 9, (E)-4-amino-3-methoxyphenethyl 3-(4-hydroxy-3,5-dimethoxyphenyl)-acrylate], for which, in test [1], the pAkt signaling entry is given as “did attenuate” and the pMet induction entry is on record as “did not lower”. Further, the “reduction of spheroid growth” value in the test with DU145 spheroids is given as “about 50%”. In addition, the “effect on spheroid growth” value in the test on MDA-MB231 spheroids is given as “effective”.
Take `COc1cc(/C=C/C(=O)OCCc2ccc(N)nc2)cc(OC)c1O` [Compound 10, (E)-2-(6-aminopyridin-3-yl)ethyl 3-(4-hydroxy-3,5-dimethoxyphenyl)acrylate]: the “HGF-induced (Met dependent) signaling” value in test [1] is “appeared to increase”. The “reduction of spheroid growth” value in the test on DU145 spheroids is given as “about 50%”. Further, the “effect on spheroid growth” value in the test on MDA-MB231 spheroids is listed as “effective”.
